Laboratory results reported in publication PMC11085156 (Molecules, 2024).
Where two headings read alike, the source gives them in different places. Values belong to the molecule of their own block, whether it stands above or below them.

How the values were obtained:
[1] = system: human dermal fibroblasts (CRL-2097); conditions: 50 µM
Description: (§1) DMSO and water were the solvent controls for the artemisinic compounds and teas, respectively. Fibroblasts (passages 10–14) were seeded in 6-well plates in 2 mL medium at a density of 6250 cells/cm^2. After overnight attachment, media were aspirated and replaced with test drugs in growth media at the indicated concentrations and incubated at 37 °C and 5% CO2 in high humidity.
(§2) After 1 or 4 d of treatment, media were aspirated and replaced with media containing resazurin (Thermo Fisher Scientific B21187.03) at a final concentration of 25 µg/mL (stock solution 0.15 mg/mL in DPBS). […] Fluorescence readings were normalized to the appropriate solvent controls.

[2] = system: ACTA2, COL1A1, COL3A1, TGFB1, TGFB2, TGFBR1, MMP1, and MMP3; test: qRT-PCR gene expression in drug-treated fibroblasts: panel of fibrosis-related marker genes; format: cell-based, human; conditions: 4 d treatment; 50 µM
Description: Drug treatments were performed as follows. […] RNA from cells after 4 d of drug treatment was isolated using the NucleoSpin RNA/protein mini kit (Macherey-Nagel, Allentown, PA, USA, 740933.50) according to the manufacturer’s instructions. The concentration of isolated RNA was measured using a Nanodrop 2000c Spectrophotometer (Thermo Scientific). […] A SYBR-based PowerTrack master mix (Thermo Fisher Scientific A46012) was used to perform RT-qPCR on a QuantStudio 6 Pro Real-Time PCR system (Thermo Fisher Scientific) in 10 μL reactions. The thermal protocol was as follows: 95 °C for 2 min, then 40 cycles of 95 °C for 15 s and 60 °C for 60 s. PCR primer sequences are listed in Table 2 and were the same as used in Larson et al., 2019 [17]. Fold change in gene expression was determined using the ΔΔCT method with GAPDH as the housekeeping gene.

[3] = system: smooth-muscle α-actin (α-SMA); test: Immunofluorescence staining for α-SMA in treated fibroblasts; format: cell-based, human; conditions: 4 d treatment, 50 µM drug or tea (A. afra 1/4X)
Text: After 1 and 4 d, cells were fixed with paraformaldehyde and stained for immunofluorescence using primary mouse anti-α-SMA (Santa Cruz Biotechnology, Dallas, TX, USA, sc-32251) and secondary goat anti-mouse IgG AlexaFluor488-conjugated antibodies (Thermo Fisher Scientific A-11001), and DNA was counterstained with Hoechst 33342 as previously described.

[4] = GC-MS analysis of culture media incubated with drugs in the absence of cells; format: physicochemical
[5] = system: human dermal fibroblasts (CRL-2097); test: Resazurin viability assay of human dermal fibroblasts; conditions: for change in fibroblast viability: 50 µM
Description: as §1, §2

[6] = system: TGFB2; test: qRT-PCR gene expression in drug-treated fibroblasts: TGFB2; format: cell-based, human; conditions: 4 d treatment; 50 µM; GAPDH internal control
Description: (§3) DMSO and water were the solvent controls for the artemisinic compounds and teas, respectively. Fibroblasts (passages 10–14) were seeded in 6-well plates in 2 mL medium at a density of 6250 cells/cm^2. After overnight attachment, media were aspirated and replaced with test drugs in growth media at the indicated concentrations and incubated at 37 °C and 5% CO2 in high humidity. After 4 d of drug treatment, cells were harvested, washed with 1× Dulbecco’s phosphate-buffered saline (DPBS; Thermo Fisher Scientific 14190136), snap frozen in liquid nitrogen, and stored at −80 °C until the time of RNA extraction for analysis.
(§4) RNA from cells after 4 d of drug treatment was isolated using the NucleoSpin RNA/protein mini kit (Macherey-Nagel, Allentown, PA, USA, 740933.50) according to the manufacturer’s instructions. The concentration of isolated RNA was measured using a Nanodrop 2000c Spectrophotometer (Thermo Scientific). Complementary DNA (cDNA) was synthesized from RNA using a QuantiTect reverse transcription kit (Qiagen, Germantown, MD, USA, 205313) following the manufacturer’s instructions. A SYBR-based PowerTrack master mix (Thermo Fisher Scientific A46012) was used to perform RT-qPCR on a QuantStudio 6 Pro Real-Time PCR system (Thermo Fisher Scientific) in 10 μL reactions.

[7] = system: TGFBR1; test: qRT-PCR gene expression in drug-treated fibroblasts: TGFBR1; format: cell-based, human; conditions: 4 d treatment; 50 µM; GAPDH internal control
Description: as §3, §4

[8] = system: MMP1; test: qRT-PCR gene expression in drug-treated fibroblasts: MMP1; format: cell-based, human; conditions: 4 d treatment; 50 µM; GAPDH internal control
Description: as §3, §4

[9] = system: MMP3; test: qRT-PCR gene expression in drug-treated fibroblasts: MMP3; format: cell-based, human; conditions: 4 d treatment; 50 µM; GAPDH internal control
Description: as §3, §4

[10] = Thin-layer chromatography of media from drug-treated fibroblasts; format: in vitro ADME, human; conditions: fibroblast cultures, 50 µM
Description: Media were extracted 1:1 with dichloromethane overnight, after which the solvent was separated and dried. Extracts (equivalent to 1 mL media) were resuspended in dichloromethane, spotted on Si-gel 60 F254 plates (EMD Millipore, Burlington, MA, USA, cat #1.05735.0001), and run in a mobile phase of 5:11:4 dichloromethane–hexane–acetone plus 0.5% v/v acetic acid. Plates were stained with p-anisaldehyde reagent (75 mL ethanol, 2.5 mL sulfuric acid, 1 mL acetic acid, and 2 mL p-anisaldehyde (Sigma Aldrich, St. Louis, MO, USA, A88107-100G)) and heated for 10 min at 105 °C.

[11] = cell-free culture media incubated 4 days, 50 µM ART drugs, GC-MS
[12] = cell-free culture media, 50 µM ART drugs, GC-MS
[13] = 1 d treatment, 50 µM drug or tea normalized to 50 µM ART, % of solvent control

SMILES: CO[C@H]1O[C@@H]2O[C@@]3(C)CC[C@H]4[C@H](C)CC[C@@H]([C@H]1C)[C@@]24OO3 [AM, artemether]
change in fibroblast viability [1]: no significant change

SMILES: C[C@H]1[C@H](OC(=O)CCC(=O)O)O[C@@H]2O[C@@]3(C)CC[C@H]4[C@H](C)CC[C@@H]1[C@@]24OO3 [AS, artesunate]
α-SMA staining compared to solvent control [3]: considerably decreased
concentration of dART in culture media, Day 4 [4, 11]: 1.5 µg/mL
concentration of dART in culture media, Day 0 [4, 12]: 0 µg/mL
decrease in fibroblast viability [5, 13]: ~35%

SMILES: C[C@@H]1CC[C@H]2[C@@H](C)C(=O)O[C@@H]3O[C@@]4(C)CC[C@@H]1[C@]32O4 [dART, deoxyartemisinin]
change in fibroblast viability ([5]; 4 d treatment, vs control): no change

The next lines start with results.

concentration of dART in culture media, Day 4 [4, 11]: 0.5 µg/mL
concentration of the treatment drug (ART for the tea) in culture media, Day 4 ([4]; cell-free culture media incubated 4 days, 50 µM ART drugs, GC-MS, ND = not detected): 0.42 µg/mL
concentration of dART in culture media, Day 0 [4, 12]: 0 µg/mL
ART disappeared ([4]; day 4, cell-free culture media): > 99%
SMILES: C[C@@H]1CC[C@H]2[C@@H](C)C(=O)O[C@@H]3O[C@@]4(C)CC[C@@H]1[C@]32OO4 [ART, artemisinin]
effects on the expressions of other markers (other than MMP1) [2]: lacked effects
α-SMA staining compared to solvent control [3]: substantial increase
change in fibroblast viability ([5]; 1 d exposure, vs solvent control): no significant change
decrease in fibroblast viability ([5]; 4 d treatment, 50 µM drug or tea infusion, % of respective control): about 20%

treatment drug remaining in media (TLC) ([10]; after day 1): nearly gone
dART in media (TLC) ([10]; day 4): observed
treatment drug (ART for the tea) remaining in media (TLC) ([10]; day 4): undetectable
concentration of dART in culture media, Day 4 [4, 11]: 6.9 µg/mL
concentration of dART in culture media, Day 0 [4, 12]: 0 µg/mL
SMILES: C[C@H]1[C@@H](O)O[C@@H]2O[C@@]3(C)CC[C@H]4[C@H](C)CC[C@@H]1[C@@]24OO3 [DHA, dihydroartemisinin]
decrease in TGFB2 expression, fold change vs. solvent control [6]: 3.7 fold
decrease in TGFBR1 expression, fold change vs. solvent control [7]: 4 fold
increase in MMP1 expression, fold change vs. solvent control [8]: 8 fold
increase in MMP3 expression, fold change vs. solvent control [9]: 51.8 fold
α-SMA staining compared to solvent control [3]: considerably decreased
decrease in fibroblast viability [5, 13]: ~45%
